In patent US20110117208A1, “CHRONIC WOUND TREATMENT” (TECHNOSTICS LIMITED, priority 2008, published 2011):

Experiments:
elastase = target: T1, elastase (Sus scrofa, UniProt P00772); experiment: Elastin Congo red assay; assay type: biochemical, porcine; conditions: pH 8; FIG. 12, 13, 14
T1 construct: Elastase (from porcine pancreas Type I, aqueous); purchased Sigma-Aldrich Ltd, UK; host or cells: porcine pancreas
Protocol: Elastin Congo red is a commercially available elastin substrate impregnated with the chromophore Congo red. In the presence of elastase the Congo red dye is liberated from the elastin and the resulting colour change can be measured and correlated with elastolytic activity. The elastin Congo red assay was used to determine the inhibitory effect of polyphosphates and trimetaphosphate on the elastase against the elastin Congo red substrate.
A series of test solutions containing between 0-306 mg/ml of the proposed inhibitor were prepared. 100 μl of this test solution was then thoroughly mixed with 100 μl of elastase solution on a vortex mixer. […] of buffered Elastin Congo red solution was then added and mixed. The inhibitor:enzyme:Elastin Congo red sample was then incubated overnight in a heated water bath at 37° C. Samples were then removed from the water bath and placed in iced water to cool for 30 minutes before being centrifuged (Fisher Scientific, accuSpin Model 400 Benchtop Centrifuge) at 13000 rpm for 5 minutes. The absorbance of the supernatant was measured at 540 nm (Labsystems Multiskan Ascent 354, ThermoFisher Scientific, Horsham, West Sussex, UK) using deionised water as a blank. […]

pepsin = target: T2, pepsin (Sus scrofa, UniProt P00791); experiment: Trichloroacetic acid (TCA) precipitation assay, pepsin against haemoglobin; assay type: biochemical, porcine; conditions: pH 2; FIG. 4
T2 construct: purchased Sigma-Aldrich Ltd, UK; host or cells: porcine gastric mucosa
Protocol: The TCA assay is based on the method described by M. L. Anson (1938). J General Physiol, 22, 79-89. The substrate, bovine haemoglobin, is digested by pepsin. Any remaining undigested haemoglobin is then precipitated with TCA to yield a supernatant which contains only products of digested haemoglobin. The concentration of haemoglobin breakdown products in the supernatant is measured spectrophotometrically and provides an indication of proteinase activity. The TCA precipitation assay was used to determine the inhibitory effect of polyphosphates and trimetaphosphate on the action of pepsin against haemoglobin.
A series of test solutions containing between 0-306 mg/ml of the proposed inhibitor were prepared. 100 μl of this test solution was then thoroughly mixed with 100 μl of pepsin solution on a vortex mixer before 1500 μl of buffered bovine haemoglobin solution was added and mixed. The inhibitor:enzyme:haemoglobin sample was then incubated in a heated water bath for 30 minutes at 37° C. The samples was then removed from the incubator, mixed with 2.0 ml TCA solution and left to stand for 30 minutes in iced water. […] The absorbance of the supernatant was measured at 280 nm (Labsystems Multiskan Ascent 354, ThermoFisher Scientific, Horsham, West Sussex, UK) using deionised water as a blank. […]

T2 sequence (P00791 60-385): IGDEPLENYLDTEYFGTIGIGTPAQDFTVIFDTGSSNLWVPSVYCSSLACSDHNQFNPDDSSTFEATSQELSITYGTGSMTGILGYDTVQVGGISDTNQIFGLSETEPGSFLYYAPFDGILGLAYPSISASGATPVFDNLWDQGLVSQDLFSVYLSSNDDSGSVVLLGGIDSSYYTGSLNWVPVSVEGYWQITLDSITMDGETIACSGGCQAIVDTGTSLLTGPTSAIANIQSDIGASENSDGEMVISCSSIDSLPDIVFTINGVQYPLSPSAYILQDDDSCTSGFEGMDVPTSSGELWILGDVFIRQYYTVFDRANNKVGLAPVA
T1 sequence (P00772 27-266): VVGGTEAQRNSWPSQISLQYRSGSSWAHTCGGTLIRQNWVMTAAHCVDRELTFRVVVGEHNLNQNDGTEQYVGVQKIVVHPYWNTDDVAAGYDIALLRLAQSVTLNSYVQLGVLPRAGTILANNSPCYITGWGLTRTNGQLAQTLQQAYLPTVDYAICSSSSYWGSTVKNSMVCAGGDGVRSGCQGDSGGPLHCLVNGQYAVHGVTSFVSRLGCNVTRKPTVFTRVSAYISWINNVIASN

Compound: O=P1([O-])OP(=O)([O-])OP(=O)([O-])O1.[Na+].[Na+].[Na+] [sodium trimetaphosphate]
- inhibition of elastase (in words, comparison) (elastase): could also inhibit elastase across a wide concentration range; however, the extent of inhibition at maximal concentrations was not as large as that observed with polyphosphates
- inhibition of pepsin (in words) (pepsin): could also inhibit pepsin across a wide concentration range; however, the potency and extent of inhibition at maximal concentrations was not as large as that observed with polyphosphates
